Data as given in patent US11766470B2, “Manufacture, formulation and dosing of apraglutide” (VectivBio AG, priority 2020, dated 2023).
“And” between values parts separate entries of the source, which are not always exact repeats. Equal values may be shown once. Square brackets hold non-standard residues; d marks the D form. Peptide text beside a SMILES is read from it. ξ: configuration not given here. Ile(3ξ) = CCC(C)[C@H](N)C(=O)O; Thr(3ξ) = CC(O)[C@H](N)C(=O)O; Nle = CCCC[C@H](N)C(=O)O

Tests used:
healthy adult volunteers = assay: Multiple dose study in healthy volunteers (Examples 4 and 7), pharmacodynamics: plasma citrulline, Bristol stool scale, body weight; type: in vivo, human; conditions: for Citrulline, estimate of the difference: 6 weekly SC doses
Description: The endogenous marker citrulline was selected to assess the pharmacodynamic effect of apraglutide. Citrulline was detected in all baseline and post-dose samples. Three baseline citrulline samples were obtained during two baseline visits between screening and the first dosing day and before dosing on the first dosing day. […] At baseline, the mean citrulline range was 5.3825-5.6207 μg/mL for placebo, 5.3900-6.2028 μg/mL for 1 mg apraglutide, 4.8983-5.3023 μg/mL for 5 mg apraglutide and 5.0730-5.4690 μg/mL for 10 mg apraglutide. In the placebo group, the mean citrulline concentration remained relatively stable over the trial, ranging from 4.9735 to 5.8253 μg/mL.
In short, the first contrast tested compared the mean Rpre-dose at the first time point (week 1) to the pooled mean Rpre-dose over all remaining time points (week 2 to 6). The second contrast compared the mean at week 2 to the pooled mean over week 3 to 6, etc. Testing continued until the contrast was not statistically significant. The mean Rpre-dose at week 6 for 10 mg against mean Rpre-dose over week 5 (0.8720, 95% CI: 0.1590; 1.5850 and p=0.0172) was statistically significant.
Besides citrulline, the Bristol stool scale and body weight were assessed as pharmacodynamic endpoints. In contrast to citrulline and weight, the Bristol stool scale is a discrete variable. Subjects assessed their stool in the past 24 hours using the Bristol stool scale ranging from constipation (type 1) to diarrhea (type 7). No stool in the past 24 hours was recorded as zero. As two subjects (assigned to either 1 or 5 mg) reported no stool preceding the first dose, the screening Bristol stool scale score was also taken into account when determining the baseline Bristol stool scale score.
Citrulline, BSS and weight data are analyzed with a mixed model analysis of variance with fixed factors treatment, time and treatment by time, random factor subject, and the average prevalue as covariate. The average pre-value was calculated from all pre-values after screening and before dosing, except for BSS, where the screening value was also used to calculate the average baseline.
For all pharmacodynamic endpoints (citrulline, Bristol stool scale and weight), the pre-value has been used as covariate. The average pre-value was calculated from all pre-values after screening and before dosing, except for the Bristol stool scale, where the screening value was also used to calculate the average baseline. The average pre-value of citrulline was also used as covariate in the MCP-MOD, except in the Sigmoid Emax model. This was addressed by subtracting the pre-value times the slope of the linear model of the MCP part from the values of week 6.

clinical = conditions: human, in vivo; for half-life: t1/2, arithmetic mean ± SD; for CL/F: sc
Description: 23 healthy adult volunteers received 6 weekly subcutaneous doses of apraglutide (1, 5, or 10 mg) or placebo and were followed for a further 6 weeks after the last dose. Blood collections were controlled for diet, lifestyle, and diurnal effects. […] PK data underwent non-compartmental analysis and PD data were analyzed by ANCOVA.
As with citrulline, a statistical steady-state analysis per dose level was performed for apraglutide using Helmert's approach.

[1] = 5 mg, over the whole trial period
[2] = 10 mg, over the whole trial period (N = 5)

CCCC[C@H](NC(=O)[C@H](CCC(=O)O)NC(=O)[C@H](CC(=O)O)NC(=O)[C@H](CO)NC(=O)[C@H](Cc1ccccc1)NC(=O)[C@H](CO)NC(=O)CNC(=O)[C@H](CC(=O)O)NC(=O)CNC(=O)[C@@H](N)Cc1c[nH]cn1)C(=O)N[C@H](Cc1ccccc1)C(=O)N[C@H](C(=O)N[C@H](C(=O)N[C@@H](CC(C)C)C(=O)N[C@@H](CC(=O)O)C(=O)N[C@@H](CC(C)C)C(=O)N[C@@H](CC(C)C)C(=O)N[C@@H](C)C(=O)N[C@@H](C)C(=O)N[C@@H](CCCNC(=N)N)C(=O)N[C@@H](CC(=O)O)C(=O)N[C@@H](Cc1ccccc1)C(=O)N[C@H](C(=O)N[C@@H](CC(N)=O)C(=O)N[C@@H](Cc1c[nH]c2ccccc12)C(=O)N[C@@H](CC(C)C)C(=O)N[C@H](C(=O)N[C@@H](CCC(N)=O)C(=O)N[C@H](C(=O)N[C@@H](CCCCN)C(=O)N[C@H](C(=O)N[C@H](C(=O)N[C@@H](CC(=O)O)C(N)=O)C(C)O)C(C)CC)C(C)O)C(C)CC)C(C)CC)C(C)CC)C(C)O (stereo partly drawn) [apraglutide, L-histidyl-glycyl-L-aspartyl-glycyl-L-seryl-L-phenylalanyl-L-seryl-L-aspartyl-L-glutamyl-L-norleucyl-D-phenylalanyl-L-threonyl-Lisoleucyl-L-leucyl-L-aspartyl-L-leucyl-L-leucyl-L-alanyl-L-alanyl-L-arginyl-L-aspartyl-L-phenylalanyl-L-isoleucyl-L-asparaginyl-Ltryptophanyl-L-leucyl-L-isoleucyl-L-glutaminyl-L-threonyl-L-lysyl-L-isoleucyl-L-threonyl-Laspartic acid amide] (H-HGDGSFSDE[Nle][dF][Thr(3ξ)][Ile(3ξ)]LDLLAARDF[Ile(3ξ)]NWL[Ile(3ξ)]Q[Thr(3ξ)]K[Ile(3ξ)][Thr(3ξ)]D-NH2)
Citrulline Rmax, arithmetic mean ± SD (healthy adult volunteers; 5 mg, last dose 6, listed as Apraglutide): 8.1577 ± 1.7108 µg/mL
Citrulline Rmax, arithmetic mean ± SD (healthy adult volunteers; [1]): 8.2550 ± 1.7807 µg/mL
Citrulline Rmax, geometric mean (healthy adult volunteers; [1]): 8.0870 µg/mL
Citrulline Rtmax, median (healthy adult volunteers; 5 mg, whole trial period, from first dose): 38.9 days
Difference between mean Rmax over the whole trial and Rmax after last dose (healthy adult volunteers; 10 mg): 0.0362 µg/mL
No stool in the past 24 hours, number of reports (healthy adult volunteers; 10 mg group (1 subject)): 1 time
Steady-state contrast: mean citrulline Rpre-dose at week 6 against week 5 (healthy adult volunteers; 10 mg, Helmert's approach): 0.8720
Highest mean citrulline value following the first weekly SC dose (healthy adult volunteers; 10 mg, after 7 days): 7.8487 µg/mL
Citrulline Rtmax, median (healthy adult volunteers; 10 mg, after last dose 6 (N = 5)): 3.9 days
Citrulline Rpre-dose, arithmetic mean ± SD (healthy adult volunteers; 10 mg, last dose 1): 7.8487 ± 2.7273 µg/mL
Citrulline Rpre-dose, geometric mean (healthy adult volunteers; 10 mg, last dose 1): 7.4048 µg/mL
Citrulline Rpre-dose, arithmetic mean ± SD (healthy adult volunteers; 10 mg, last dose 2): 7.6058 ± 2.3210 µg/mL
Citrulline Rpre-dose, geometric mean (healthy adult volunteers; 10 mg, last dose 2): 7.2438 µg/mL
Citrulline Rpre-dose, arithmetic mean ± SD (healthy adult volunteers; 10 mg, last dose 3): 7.5180 ± 2.1369 µg/mL
Citrulline Rpre-dose, geometric mean (healthy adult volunteers; 10 mg, last dose 3): 7.2331 µg/mL
Citrulline Rpre-dose, arithmetic mean ± SD (healthy adult volunteers; 10 mg, last dose 4 (N = 5)): 7.2060 ± 2.5488 µg/mL
Citrulline Rpre-dose, geometric mean (healthy adult volunteers; 10 mg, last dose 4 (N = 5)): 6.8103 µg/mL
Citrulline Rpre-dose, arithmetic mean ± SD (healthy adult volunteers; 10 mg, last dose 5 (N = 5)): 7.1994 ± 2.5111 µg/mL
Citrulline Rpre-dose, geometric mean (healthy adult volunteers; 10 mg, last dose 5 (N = 5)): 6.7908 µg/mL
Citrulline Rmax, arithmetic mean ± SD (healthy adult volunteers; 10 mg, last dose 6 (N = 5)): 8.7254 µg/mL
Citrulline Rmax, geometric mean (healthy adult volunteers; 10 mg, last dose 6 (N = 5)): 8.2533 µg/mL
Citrulline Rpre-dose, arithmetic mean ± SD (healthy adult volunteers; 10 mg, last dose 6 (N = 5)): 8.0714 ± 3.0514 µg/mL
Citrulline Rpre-dose, geometric mean (healthy adult volunteers; 10 mg, last dose 6 (N = 5)): 7.5618 µg/mL
Citrulline Rmax, arithmetic mean ± SD (healthy adult volunteers; 10 mg, last dose 6 (N = 5), listed as Apraglutide): 8.7254 ± 3.0145 µg/mL
Citrulline Rmax, arithmetic mean ± SD (healthy adult volunteers; [2]): 8.7616 ± 2.9900 µg/mL
Citrulline Rmax, geometric mean (healthy adult volunteers; [2]): 8.2953 µg/mL
Citrulline Rt1/2, individual subjects (healthy adult volunteers; 10 mg, two subjects): 6.5 days and 11.0 days
Citrulline Rtmax, median (healthy adult volunteers; 10 mg, whole trial period, from first dose (N = 5)): 36.9 days
Time after first dose at which increases in citrulline were observed (healthy adult volunteers; 1, 5 or 10 mg): 2 days
Bristol stool scale with zeroes set to missing, estimate of the difference (healthy adult volunteers; Placebo - 1 mg): −0.6
Bristol stool scale, estimate of the difference (healthy adult volunteers; Placebo - 1 mg): −0.9
Weight, estimate of the difference (healthy adult volunteers; Placebo - 1 mg): -0.750 kg
Citrulline, estimate of the difference (healthy adult volunteers; Placebo - 1 mg): 0.3146 µg/mL
Citrulline, estimate of the difference (healthy adult volunteers; Placebo - 1 mg, listed as Apraglutide): 0.31 [95% CI: −0.4371; μg/mL
Bristol stool scale with zeroes set to missing, estimate of the difference (healthy adult volunteers; Placebo - 5 mg): −0.4
Bristol stool scale, estimate of the difference (healthy adult volunteers; Placebo - 5 mg): −1.0
Weight, estimate of the difference (healthy adult volunteers; Placebo - 5 mg): -0.865 kg
Citrulline, estimate of the difference (healthy adult volunteers; Placebo - 5 mg): 1.2574 µg/mL
Citrulline, estimate of the difference (healthy adult volunteers; Placebo - 5 mg, listed as Apraglutide): 1.26 [95% CI: 0.5037; μg/mL
Bristol stool scale with zeroes set to missing, estimate of the difference (healthy adult volunteers; Placebo - 10 mg): −0.5
Bristol stool scale, estimate of the difference (healthy adult volunteers; Placebo - 10 mg): −0.6
Weight, estimate of the difference (healthy adult volunteers; Placebo - 10 mg): -0.331 kg
Citrulline, estimate of the difference (healthy adult volunteers; Placebo - 10 mg): 1.6343 µg/mL
Citrulline, estimate of the difference (healthy adult volunteers; Placebo - 10 mg, listed as Apraglutide): 1.63 [95% CI: 0.8809; μg/mL
Variability in citrulline Rmax explained by AUCtau (R squared) (healthy adult volunteers; week 6): 26%
Increase of maximum citrulline response per 100 d*ng/mL increase in AUCtau (healthy adult volunteers; week 6, regression line): 390 ng/mL
Vd/F (clinical; 5 mg): 55.4 L
half-life (clinical; 5 mg): 3.04 days
Vd/F (clinical; 10 mg): 105 L
half-life (clinical; 10 mg): 3.18 days
CL/F (clinical; 1 mg): 12.2 mL/min
CL/F (clinical; 5 mg): 11.4 mL/min
CL/F (clinical; 10 mg): 14.4 mL/min
